Measurements taken from patent US9199946B2, “Pyrimidinone carboxamide inhibitors of endothelial lipase” (BRISTOL-MYERS SQUIBB COMPANY, priority 2012, dated 2015).
Where two headings read alike, the source gives them in different places.

Biological target: T1, Endothelial lipase (EL) (Homo sapiens, UniProt Q9Y5X9)
T1 construct: HT-1080 cells, which were transformed by RAGE technology (Athersys) to overexpress endogenous EL; endogenous in cells; conditioned medium used as the enzyme source
T1 sequence (Q9Y5X9 21-500): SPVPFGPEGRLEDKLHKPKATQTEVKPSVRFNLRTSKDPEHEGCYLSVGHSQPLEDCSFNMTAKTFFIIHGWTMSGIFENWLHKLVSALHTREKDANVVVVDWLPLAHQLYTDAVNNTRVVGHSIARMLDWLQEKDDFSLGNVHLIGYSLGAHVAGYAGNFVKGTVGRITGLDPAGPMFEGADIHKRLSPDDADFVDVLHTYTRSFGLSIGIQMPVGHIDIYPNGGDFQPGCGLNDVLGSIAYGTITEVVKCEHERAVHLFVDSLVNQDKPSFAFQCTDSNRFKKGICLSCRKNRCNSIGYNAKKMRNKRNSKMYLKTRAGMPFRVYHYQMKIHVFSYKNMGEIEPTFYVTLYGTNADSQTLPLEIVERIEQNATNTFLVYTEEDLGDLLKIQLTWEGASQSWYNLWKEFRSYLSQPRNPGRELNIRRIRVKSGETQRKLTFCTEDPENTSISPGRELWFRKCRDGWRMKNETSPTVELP
Test: Endothelial lipase (EL) enzymatic assay with fluorescent substrate A10070 in DMPG vesicles
Format: biochemical
Description: Endothelial lipase activity was measured using a fluorescent substrate, A10070, (Invitrogen, CA) doped into an artificial vesicle containing DMPG (Avanti Polar Lipids) as the excipient. Vesicles were prepared by combining 285 μL of 1 mM DMPG in a 1:1 mixture of MeOH and CHCl3 with 15 μL of 1 mM A10070 in a 1:1 mixture of MeOH and CHCl3. The mixture was dried under nitrogen and resuspended in 150 μL of 50 mM HEPES pH 8.0 buffer containing 100 mM NaCl and 0.2 mM EDTA. The sample was allowed to sit at rt for 15 min and then was sonicated 3×4 mins on ice with a Branson Sonicator using duty cycle 1. This preparation provides vesicles with a mole fraction of 0.05 for the FRET substrate.
The enzymatic assay was measured using white, opaque 96-well half area plates. Each well contained 60 μL of assay buffer (50 mM HEPES pH 8.0, 50 mM NaCl and 1 mM CaCl2) and 2 ul of a DMSO solution containing compound of interest. Conditioned media obtained from HT-1080 cells, which were transformed by RAGE technology (Athersys) to overexpress endogenous EL, was added and the reaction was allowed to incubate for 20 min at 37° C. with gentle agitation. The reaction was started by the addition of 20 μL of a 1:4 dilution of vesicles. The final total reaction volume was 100 μL. The reaction rates were measured on a Gemini plate reader with an excitation wavelength of 488 nm and an emission of 530 nm. Readings were taken every 20 seconds for 10 min with agitation between each reading. The slope of the linear portion of the readout was used to calculate the rate of the reaction.

[1] = range observed in the EL assay, read-out: EL IC50 values
[2] = conditioned media from HT-1080 cells overexpressing endogenous EL, 20 min preincubation at 37° C., read-out: EL IC50

Row | SMILES | IC50 [1] [µM] | IC50 [2] [µM]
1 | Nc1c(C(=O)NC2CCN(c3ncnc4[nH]ncc34)C2)[nH]c(=O)[nH]c1=O (stereo not drawn) [Example 189, N-(1-(1H-pyrazolo[3,4-d]pyrimidin-4-yl)pyrrolidin-3-yl)-5-amino-2,6-dioxo-1,2,3,6-tetrahydropyrimidine-4-carboxamide] | ≤ 10 | 0.641
2 | Nc1c(C(=O)N[C@@H]2CCCc3c2cccc3C(F)(F)F)[nH]c(=O)[nH]c1=O [Example 49, (R)-5-amino-2,6-dioxo-N-(5-(trifluoromethyl)-1,2,3,4-tetrahydronaphthalen-1-yl)-1,2,3,6-tetrahydropyrimidine-4-carboxamide] | ≤ 10 | 
3 | Nc1c(C(=O)N[C@@H]2CCCc3c(OCc4ccccc4F)cccc32)[nH]c(=O)[nH]c1=O [Example 96, (R)-5-amino-N-(5-(2-fluorobenzyloxy)-1,2,3,4-tetrahydronaphthalen-1-yl)-2,6-dioxo-1,2,3,6-tetrahydropyrimidine-4-carboxamide] | ≤ 10 | 
4 | Nc1c(C(=O)N[C@@H]2CCc3ccccc32)[nH]c(=O)[nH]c1=O [Example 9, (R)-5-amino-N-(2,3-dihydro-1H-inden-1-yl)-2,6-dioxo-1,2,3,6-tetrahydropyrimidine-4-carboxamide] | ≤ 10 | 
5 | CS(=O)(=O)N1CCC(NC(=O)c2[nH]c(=O)[nH]c(=O)c2N)c2ccccc21 (stereo not drawn) [Example 24, 5-amino-N-(1-(methylsulfonyl)-1,2,3,4-tetrahydroquinolin-4-yl)-2,6-dioxo-1,2,3,6-tetrahydropyrimidine-4-carboxamide] | ≤ 10 | 0.568
6 | O=C(N[C@H]1CC[C@@H](c2ccccc2)CC1)c1[nH]c(=O)n(CCO)c(=O)c1O [Example 269, 5-Hydroxy-1-(2-hydroxyethyl)-2,6-dioxo-N-(cis-4-phenylcyclohexyl)-1,2,3,6-tetrahydropyrimidine-4-carboxamide] | ≤ 10 | 
7 | Nc1c(C(=O)N[C@@H]2CCc3ccc(-c4ccccc4)cc32)[nH]c(=O)[nH]c1=O [Example 138, (R)-5-amino-2,6-dioxo-N-(6-phenyl-2,3-dihydro-1H-inden-1-yl)-1,2,3,6-tetrahydropyrimidine-4-carboxamide] | ≤ 10 | 1.72
8 | Nc1c(C(=O)N[C@H]2CCCc3c(OCc4ccccc4F)cccc32)[nH]c(=O)[nH]c1=O [Example 97, (S)-5-amino-N-(5-(2-fluorobenzyloxy)-1,2,3,4-tetrahydronaphthalen-1-yl)-2,6-dioxo-1,2,3,6-tetrahydropyrimidine-4-carboxamide] | ≤ 10 | 
9 | O=C(N[C@H]1CC[C@@H](c2ccccc2)CC1)c1[nH]c(=O)[nH]c(=O)c1NCCN1CCCCC1 [Example 237, 2,6-dioxo-N-((1s,4s)-4-phenylcyclohexyl)-5-(2-(piperidin-1-yl)ethylamino)-1,2,3,6-tetrahydropyrimidine-4-carboxamide] | ≤ 10 | 
10 | O=C(N[C@@H]1CC[C@H](c2ccccc2)c2ccccc21)c1[nH]c(=O)[nH]c(=O)c1O [Example 250, 5-hydroxy-2,6-dioxo-N-((1R,4R)-4-phenyl-1,2,3,4-tetrahydronaphthalen-1-yl)-1,2,3,6-tetrahydropyrimidine-4-carboxamide] | ≤ 10 | 
11 | COc1ccc2c(c1)CC[C@H]2NC(=O)c1[nH]c(=O)[nH]c(=O)c1N [Example 70, (R)-5-amino-N-(5-methoxy-2,3-dihydro-1H-inden-1-yl)-2,6-dioxo-1,2,3,6-tetrahydropyrimidine-4-carboxamide] | ≤ 10 | 
12 | O=C(N[C@@H]1CC[C@@H](C(=O)N[C@H]2CC[C@@H](c3ccccc3)CC2)C1)c1[nH]c(=O)[nH]c(=O)c1O [Example 297, 5-hydroxy-2,6-dioxo-N-((1R,3R)-3-((1s,4S)-4-phenylcyclohexylcarbamoyl)cyclopentyl)-1,2,3,6-tetrahydropyrimidine-4-carboxamide] | ≤ 10 | 
13 | Nc1c(C(=O)NC2Cc3ccccc3C2Cc2ccccc2)[nH]c(=O)[nH]c1=O (stereo not drawn) [Example 8, 5-amino-N-(1-benzyl-2,3-dihydro-1H-inden-2-yl)-2,6-dioxo-1,2,3,6-tetrahydropyrimidine-4-carboxamide] | ≤ 10 | 
14 | Nc1c(C(=O)N[C@@H]2CCCc3c(NC(=O)c4ccccc4)cccc32)[nH]c(=O)[nH]c1=O [Example 124, (R)-5-amino-N-(5-benzamido-1,2,3,4-tetrahydronaphthalen-1-yl)-2,6-dioxo-1,2,3,6-tetrahydropyrimidine-4-carboxamide] | ≤ 10 | 
15 | O=C(N[C@H]1CC[C@@H](c2ccccc2)CC1)c1[nH]c(=O)[nH]c(=O)c1NCc1ccccc1C(F)(F)F [Example 215, 2,6-dioxo-N-(cis-4-phenylcyclohexyl)-5-(2-(trifluoromethyl)benzylamino)-1,2,3,6-tetrahydropyrimidine-4-carboxamide] | ≤ 10 | 

Results, then the compound that gave them:

Row | IC50 [1] [µM] | IC50 [2] [µM] | SMILES
16 | ≤ 10 |  | COc1ccc(-c2ccc([C@@H]3CC[C@H](NC(=O)c4[nH]c(=O)[nH]c(=O)c4N)C3)cc2)cc1OC [Example 161, 5-amino-N-((1S,3R)-3-(3′,4′-dimethoxybiphenyl-4-yl)cyclopentyl)-2,6-dioxo-1,2,3,6-tetrahydropyrimidine-4-carboxamide]
17 | ≤ 10 | 3.68 | Nc1c(C(=O)NC2CCC(NC(=O)Cc3nc4ccc(-c5ccccc5)cc4s3)C2)[nH]c(=O)[nH]c1=O (stereo not drawn) [Example 135, 5-amino-2,6-dioxo-N-(3-(2-(6-phenylbenzo[d]thiazol-2-yl)acetamido)cyclopentyl)-1,2,3,6-tetrahydropyrimidine-4-carboxamide]
18 | ≤ 10 |  | O=C(NC1CCC(c2cccc(OCc3ccccc3)c2)C1)c1[nH]c(=O)[nH]c(=O)c1O (stereo not drawn) [Example 282, N-(3-(3-(benzyloxy)phenyl)cyclopentyl)-5-hydroxy-2,6-dioxo-1,2,3,6-tetrahydropyrimidine-4-carboxamide]
19 | ≤ 10 | 1.48 | Cc1nc(-c2ccccc2)sc1-c1ccc([C@@H]2CC[C@H](NC(=O)c3[nH]c(=O)[nH]c(=O)c3N)C2)cc1 (stereo in doubt) [Example 171, 5-amino-N-((1S,3R)-3-(4-(4-methyl-2-phenylthiazol-5-yl)phenyl)cyclopentyl)-2,6-dioxo-1,2,3,6-tetrahydropyrimidine-4-carboxamide]
20 | ≤ 10 |  | CC(C)Cn1cc(-c2ccc([C@@H]3CC[C@H](NC(=O)c4[nH]c(=O)[nH]c(=O)c4N)C3)cc2)cn1 [Example 172, 5-amino-N-((1S,3R)-3-(4-(1-isobutyl-1H-pyrazol-4-yl)phenyl)cyclopentyl)-2,6-dioxo-1,2,3,6-tetrahydropyrimidine-4-carboxamide]
21 | ≤ 10 |  | Nc1c(C(=O)N[C@H]2CC[C@@H](c3ccc(-c4ccccc4)cc3)C2)[nH]c(=O)[nH]c1=O [Example 167, 5-amino-N-((1S,3R)-3-(biphenyl-4-yl)cyclopentyl)-2,6-dioxo-1,2,3,6-tetrahydropyrimidine-4-carboxamide]
22 | ≤ 10 |  | Nc1c(C(=O)N[C@@H]2CC[C@H](C(=O)Nc3ccccc3)C2)[nH]c(=O)[nH]c1=O [Example 130, 5-amino-2,6-dioxo-N-((1R,3S)-3-(phenylcarbamoyl)cyclopentyl)-1,2,3,6-tetrahydropyrimidine-4-carboxamide]
23 | ≤ 10 | 0.01 | O=C(NC1CCCC(c2cnn(Cc3ccccc3)c2)C1)c1[nH]c(=O)[nH]c(=O)c1O (racemic) [Example 289, N-(3-(1-benzyl-1H-pyrazol-4-yl)cyclohexyl)-5-hydroxy-2,6-dioxo-1,2,3,6-tetrahydropyrimidine-4-carboxamide]
24 | ≤ 10 | 0.039 | CC(C)Oc1ccc(C2CCC(NC(=O)c3[nH]c(=O)[nH]c(=O)c3N)C2)cc1 (stereo not drawn) [Example 142, 5-amino-N-(3-(4-isopropoxyphenyl)cyclopentyl)-2,6-dioxo-1,2,3,6-tetrahydropyrimidine-4 carboxamide]
25 | ≤ 10 | 0.028 | Nc1c(C(=O)N[C@H]2CCc3ccc(-c4ccccc4)cc32)[nH]c(=O)[nH]c1=O [Example 139, (S)-5-amino-2,6-dioxo-N-(6-phenyl-2,3-dihydro-1H-inden-1-yl)-1,2,3,6-tetrahydropyrimidine-4-carboxamide]
